Values joined by “and” are separate entries in the source; they are usually repeats but may differ in a detail not shown here. Equal values may be shown once. Read-outs that look alike come from different tables or passages of the source.
How the values were obtained:
[1] = PAMPA permeability
[2] = rat microsomal stability (RLM); settings: for half-life: rat, rat liver microsomes
[3] = molecular target: recombinant human GALK1 (Homo sapiens, UniProt P51570); assay: hGALK1 biochemical activity assay (Kinase-Glo Plus, ATP depletion)
Sequence of recombinant human GALK1 (P51570 whole entry): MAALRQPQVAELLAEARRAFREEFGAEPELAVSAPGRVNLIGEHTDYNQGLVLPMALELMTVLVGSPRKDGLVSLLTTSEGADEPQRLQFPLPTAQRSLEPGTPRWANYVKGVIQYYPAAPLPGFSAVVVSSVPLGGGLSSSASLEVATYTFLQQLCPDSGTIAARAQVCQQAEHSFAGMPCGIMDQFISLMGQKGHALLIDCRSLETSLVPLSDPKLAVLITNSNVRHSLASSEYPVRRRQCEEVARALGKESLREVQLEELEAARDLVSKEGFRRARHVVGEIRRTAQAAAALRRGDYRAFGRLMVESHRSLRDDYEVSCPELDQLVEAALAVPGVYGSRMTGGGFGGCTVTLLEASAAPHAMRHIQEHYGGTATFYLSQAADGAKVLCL
Method in brief: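 Recombinant human or mouse GALK1 (5 nM, with 100 μM galactose, in the added enzyme solution) was run with ATP (35 μM in the substrate solution) in HEPES pH 8.0 buffer. Compounds were tested at 11 1/3-step concentrations from 57.4 μM to 0.97 nM. After 1 h at room temperature, remaining ATP was read by Kinase-Glo Plus luminescence.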

[4] = aqueous kinetic solubility
[5] = molecular target: T1, hGALK1m (Homo sapiens, UniProt P51570, E253A/K252A); assay: in vitro hGALK1 activity assay of the structure-based optimisation (Example 12, Tables 17-20); format: biochemical
T1 construct: made in house; host or cells: E. coli HMS174
T1 sequence (P51570 whole entry K252A/E253A): as the sequence (P51570 whole entry) above, with K252A, E253A counted along it
Description: In vitro hGALK1 activity assays were performed as previously described. Liu et al., Bioorg. Med. Chem. Lett. 25(3): 721-727 (2015), which is incorporated by reference herein for the specific teachings thereof. The biochemical assay was performed by coupling the activity of recombinant human or mouse GALK1 to the Kinase-Glo Plus luminescent ATP detection kit, using ATP depletion as a measure of GALK1 turnover. Specifically, three μL/well of ATP substrate solution (35 μM ATP) in assay buffer (20 mM HEPES pH 8.0, 5 mM MgCl2, 60 mM NaCl, 1 mM DTT, 0.01% BSA final concentration) was dispensed into 1536-well assay plates (Greiner, white solid-bottom medium-binding plates). Aliquots of compound (23 nL solubilized in DMSO) were transferred to the assay plates using a Kalypsys 1536-well pintool such that 11 concentrations with 1/3 dilutions ranging from 57.4 μM-0.97 nM are tested. One μL/well of GALK-galactose solution (5 nM GALK1, 100 μM galactose) in assay buffer was then added, yielding a final reaction volume of 4 μL/well. Following a 1-hour room temperature incubation, 4 μL of Kinase-Glo Plus detection reagent was added to provide an ATP-dependent luminescent readout (final assay volume: 8 μL/well). Luminescence was detected using a ViewLux plate reader (PerkinElmer) after a 10-minute incubation, using a 1 second exposure time and 2× binning.
The in vitro hGALK1 activity assay was performed as previously described. Liu et al., Bioorg. Med. Chem. Lett. 25(3): 721-727 (2015). For the measurement of cellular Gal-1P reduction, compounds at different concentrations were added to cultured patient fibroblast at 80% confluency. After incubating the compounds for 16 hours, 10 mM galactose was added to the culture. After another 4 hours, cells were washed with cold PBS buffer 3× and harvested for gal-1P measurement, according to the previously published method. Liu et al., Bioorg. Med. Chem. Lett. 25(3): 721-727 (2015).

[6] = molecular target: recombinant mouse GALK1 (Mus musculus, UniProt Q9R0N0); assay: mGALK1 biochemical activity assay (Kinase-Glo Plus, ATP depletion)
Sequence of recombinant mouse GALK1 (Q9R0N0 whole entry): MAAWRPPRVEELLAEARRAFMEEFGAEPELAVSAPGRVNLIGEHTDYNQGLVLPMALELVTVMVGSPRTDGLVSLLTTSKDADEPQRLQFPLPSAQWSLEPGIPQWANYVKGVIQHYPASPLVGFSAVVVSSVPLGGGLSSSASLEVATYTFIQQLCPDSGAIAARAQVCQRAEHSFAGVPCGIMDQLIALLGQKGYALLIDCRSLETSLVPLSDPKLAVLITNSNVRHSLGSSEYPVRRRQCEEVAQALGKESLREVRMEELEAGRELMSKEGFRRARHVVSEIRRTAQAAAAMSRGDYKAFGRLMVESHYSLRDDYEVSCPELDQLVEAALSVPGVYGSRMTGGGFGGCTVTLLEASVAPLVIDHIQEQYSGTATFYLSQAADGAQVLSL
Method in brief: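 Recombinant GALK1 (5 nM) with 100 μM galactose; GALK1 turnover read as ATP depletion by Kinase-Glo Plus luminescence. Reaction ran 1 h at room temperature before detection reagent was added.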

[7] = PAMPA, ADME P: PAMPA permeability (class), Tables 17-19, class probably colour-coded, colour lost
[8] = PAMPA, Perm. (1 × 10^−6 cm/sec)
[9] = Tables 2-15, 35 μM ATP, 100 μM galactose, 1 h, bracketed figure after some values (e.g. −1.2) is undefined and not reported, read-out: hGALK IC50
[10] = recombinant human GALK1, Kinase-Glo Plus ATP depletion, read-out: hGALK
[11] = 1 h, Table 17, read-out: Efficacy
[12] = Tables 18-20 and text of Example 12
[13] = Tables 2-15, 35 μM ATP, 100 μM galactose, 1 h, bracketed figure after some values is undefined and not reported, read-out: mGALK IC50
[14] = recombinant mouse GALK1, Kinase-Glo Plus ATP depletion, read-out: mGALK
[15] = Table 17, amide group optimization, no unit in table
[16] = Tables 18-19, read-out: Max Response (%)
[17] = Tables 18-19 and text of Example 12

Row | SMILES | Papp [1, 7] [×10⁻⁶ cm/s] | Papp [1, 8] [×10⁻⁶ cm/s] | Metab. Stabil. (m) ([2]; microsomal stability half-life) | half-life [2] [min] | IC50 [3, 9] [µM] | IC50 [3, 10] [µM] | Sol. ([4]; aqueous kinetic solubility) [µg/mL] | Emax [5, 11] [%] | IC50 [5, 12] | IC50 [6, 13] [µM] | IC50 [6, 14] [µM] | Perm. (1 × 10^−6 cm/sec) ([1]; PAMPA) | IC50 [5, 15] [µM] | Metab. Stabil. (m) ([2]; microsomal half-life) | Sol. [4] [µg/mL] | Emax [5, 16] [%] | IC50 [5, 17] [µM] | Perm. (1 × 10^−6 cm/sec) [1] | change of potency versus parent compound (in words) [5]
1 | CC1=C(C(=O)Nc2cc(C(=O)O)ccn2)C(c2ccccc2Cl)N=C(Nc2nc3ccccc3o2)N1 (racemic) [Compound 194, 2-(2-(benzo[d]oxazol-2-ylamino)-4-(2-chlorophenyl)-6-methyl-1,4-dihydropyrimidine-5-carboxamido)isonicotinic acid] | < 10 | < 1 | >30 | < 10 | 1.08 | 1.08 | >74 | 88 | 0.97 µM | 6.85 | 6.85 |  |  |  |  |  |  |  | 
2 | CC1=C(C(=O)Nc2nnc(C)s2)C(c2ccccc2Cl)N=C(Nc2nc3ccccc3o2)N1 (stereo not drawn) [Compound 173, 2-(benzo[d]oxazol-2-ylamino)-4-(2-chlorophenyl)-6-methyl-N-(5-methyl-1,3,4-thiadiazol-2-yl)-1,4-dihydropyrimidine-5-carboxamide] | < 10 |  | >30 | < 10 | 5.44 |  | <1 | 95 |  | 10.9 |  | 23.75 1 × 10^−6 cm/sec | 3.9 |  |  |  |  |  | 
3 | CC1=C(C(=O)NCc2cncs2)C(c2ccccc2Cl)N=C(Nc2nc3ccccc3o2)N1 (stereo not drawn) [Compound 232, 2-(benzo[d]oxazol-2-ylamino)-4-(2-chlorophenyl)-6-methyl-N-(thiazol-5-ylmethyl)-1,4-dihydropyrimidine-5-carboxamide] | < 10 |  | 6.432 | < 10 | 1.93 | 1.93 | <1 | 84 |  | 12.2 | 12.2 | 507.4 1 × 10^−6 cm/sec | 1.2 |  |  |  |  |  | 
4 | CC1=C(C(=O)Nc2cc(C(=O)O)ccn2)C(c2ccccc2Cl)N=C(Nc2nc3cc(N)ccc3o2)N1 (stereo not drawn) [Compound 12, 2-(2-((5-aminobenzo[d]oxazol-2-yl)amino)-4-(2-chlorophenyl)-6-methyl-1,4-dihydropyrimidine-5-carboxamido)isonicotinic acid] | < 10 |  |  | < 10 | 7.69 |  |  |  |  | 21.7 | 21.7 |  |  | >30 | >76 | 100 | 5.5 |  | 
5 | COc1cccc(C2N=C(Nc3nc4ccc(F)cc4o3)NC(C)=C2C(=O)Nc2cc(C(=O)O)ccn2)c1Cl (stereo not drawn) [Compound 52, 2-(4-(2-chloro-3-methoxyphenyl)-2-((6-fluorobenzo[d]oxazol-2-yl)amino)-6-methyl-1,4-dihydropyrimidine-5-carboxamido)isonicotinic acid] | < 10 |  |  | < 10 | 6.85 | 6.85 |  |  |  | 19.3 | 19.3 |  |  | >30 | >81 | 100 | 5.4 | <1 1 × 10^−6 cm/sec | 
6 | CC1=C(C(=O)Nc2ccccc2)C(c2ccccc2Cl)N=C(Nc2nc3ccccc3o2)N1 (stereo not drawn) [Compound 137, 2-(benzo[d]oxazol-2-ylamino)-4-(2-chlorophenyl)-6-methyl-N-phenyl-1,4-dihydropyrimidine-5-carboxamide] | < 10 |  | 24 | < 10 | 10.9 |  | <1 | 57 |  | 13.7 | 13.7 |  | 6.9 |  |  | 100 | 0.97 |  | 
7 | CC1=C(C(=O)Nc2cc(C(=O)O)ccn2)C(c2ccccc2Cl)N=C(Nc2nc3cccc(F)c3o2)N1 (stereo not drawn) [Compound 10, 2-(4-(2-chlorophenyl)-2-((7-fluorobenzo[d]oxazol-2-yl)amino)-6-methyl-1,4-dihydropyrimidine-5-carboxamido)isonicotinic acid] | < 10 |  |  | < 10 |  | 1.72 |  |  |  | 8.63 | 8.63 |  |  | >30 | >77 | 100 | 1 | <1 1 × 10^−6 cm/sec | did not change the potency
8 | CCn1cc(CNC(=O)C2=C(C)NC(Nc3nc4ccc(F)c(N)c4o3)=NC2c2ccc(C)cc2Cl)cn1 (racemic) [Compound 125, 2-((7-amino-6-fluorobenzo[d]oxazol-2-yl)amino)-4-(2-chloro-4-methylphenyl)-N-((1-ethyl-1H-pyrazol-4-yl)methyl)-6-methyl-1,4-dihydropyrimidine-5-carboxamide] |  | 410 | 14.08 |  | 0.05 | 0.05 | <1 |  | 0.023 µM and 0.022 µM | 0.61 | 0.61 |  |  |  |  |  |  |  | 
9 | CC1=C(C(=O)Nc2cc(C(=O)O)ccn2)C(c2ccccc2Cl)N=C(Nc2nc3c(Cl)cccc3o2)N1 (stereo not drawn) [Compound 11, 2-(2-((4-chlorobenzo[d]oxazol-2-yl)amino)-4-(2-chlorophenyl)-6-methyl-1,4-dihydropyrimidine-5-carboxamido)isonicotinic acid] | < 10 |  |  | < 10 | 5.44 |  |  |  |  | 13.7 | 13.7 |  |  | >30 | <1 | 85 | 5.8 | <1.3 1 × 10^−6 cm/sec | 
10 | CC1=C(C(=O)Nc2cc(C(=O)O)ccn2)C(c2ccccc2Cl)N=C(Nc2nc3cccc(C(F)(F)F)c3o2)N1 (stereo not drawn) [Compound 16, 2-(4-(2-chlorophenyl)-6-methyl-2-((7-(trifluoromethyl)benzo[d]oxazol-2-yl)amino)-1,4-dihydropyrimidine-5-carboxamido)isonicotinic acid] | < 10 |  |  | < 10 |  | 21.7 |  |  |  | 48.5 | 48.6 |  |  | >30 | 61.135 | 100 | > 15 | <1 1 × 10^−6 cm/sec | greatly compromised the potencies

Reference: patent US20230158025A1 (UNIVERSITY OF UTAH RESEARCH FOUNDATION, priority 2020, published 2023)
